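Tested at 5 concentrations; 48 h exposure; 96-well plates; endpoints linearly interpolated, else capped at highest concentration. GI50 is the concentration that inhibits growth by half.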 Activity calls are given as the source filed them. No stated cut-off is given here; in the data, active = GI50 up to about 1.1 µM and inactive = higher.
Key:
Assay in all cases: DTP human tumour cell line panel, 48 h
[1] = tested on: UO-31
[2] = tested on: SK-MEL-2
[3] = tested on: BT-549
[4] = tested on: SF-268
[5] = tested on: SNB-75
[6] = tested on: NCI-H23
[7] = tested on: OVCAR-4
[8] = tested on: RPMI-8226
[9] = tested on: HOP-92
[10] = tested on: M14
[11] = tested on: SF-539
[12] = tested on: PC-3
[13] = tested on: SNB-19
[14] = tested on: KM12
[15] = tested on: K562
[16] = tested on: OVCAR-5
[17] = tested on: COLO 205
[18] = tested on: EKVX
[19] = tested on: UACC-257
[20] = tested on: RXF 393

Compound	GI50 [1]	GI50 [2]	GI50 [3]	GI50 [4]	GI50 [5]	GI50 [6]	GI50 [7]	GI50 [8]	GI50 [9]	GI50 [10]	GI50 [11]	GI50 [12]	GI50 [13]	GI50 [14]	GI50 [15]	GI50 [16]	GI50 [17]	GI50 [18]	GI50 [19]	GI50 [20]
COc1ccc(Cc2cc(OC)c(OC)c(OC)c2)cc1O	1.03 µM (active)	0.0702 µM (active)	< 0.01 µM (active)	0.122 µM (active)	< 0.01 µM (active)	0.101 µM (active)	42.5 µM (inactive)	< 0.021 µM (active)	0.119 µM (active)	0.0255 µM (active)	0.0334 µM (active)	< 0.0171 µM (active)	0.0352 µM (active)	0.0193 µM (active)	0.0161 µM (active)	68.1 µM (inactive)	> 40.2 µM (inactive)	24.7 µM (inactive)	3.95 µM (inactive)	0.181 µM (active)
O=C(O)c1ccccc1NCn1c(=S)sc2ccccc21	51.2 µM (inactive)	> 100 µM (inactive)	> 100 µM (inactive)	45.5 µM (inactive)	> 100 µM (inactive)	28.2 µM (inactive)	56 µM (inactive)	32.3 µM (inactive)	> 100 µM (inactive)	> 100 µM (inactive)	18.3 µM (inactive)	45.6 µM (inactive)	76.7 µM (inactive)	63 µM (inactive)	> 100 µM (inactive)	> 100 µM (inactive)	25.7 µM (inactive)	> 100 µM (inactive)	31.8 µM (inactive)	> 100 µM (inactive)
O=C1/C(=C/c2ccc(Cl)c(Cl)c2)CNC/C1=C\c1ccc(Cl)c(Cl)c1	17.5 µM (inactive)	23.3 µM (inactive)	27.9 µM (inactive)	3.95 µM (inactive)	10.8 µM (inactive)	8.51 µM (inactive)	2.52 µM (inactive)	3.75 µM (inactive)	22 µM (inactive)	15.8 µM (inactive)	7.87 µM (inactive)	13.9 µM (inactive)	1.46 µM (inactive)	6.76 µM (inactive)	3.1 µM (inactive)	18.3 µM (inactive)	5.27 µM (inactive)	6.17 µM (inactive)	41.2 µM (inactive)	14 µM (inactive)
NS(=O)(=O)c1ccc(NCc2cnc3ccccc3c2)cc1	> 100 µM (inactive)	> 100 µM (inactive)	62.8 µM (inactive)	39.8 µM (inactive)	> 100 µM (inactive)	60 µM (inactive)	> 100 µM (inactive)	> 100 µM (inactive)	49.8 µM (inactive)	> 100 µM (inactive)	30.5 µM (inactive)	> 100 µM (inactive)	> 100 µM (inactive)	> 100 µM (inactive)	> 100 µM (inactive)	> 100 µM (inactive)	> 100 µM (inactive)	> 100 µM (inactive)	> 100 µM (inactive)	> 100 µM (inactive)
Nc1ncnc2nn(C3OC(CO)C(O)C3O)nc12 (stereo not given)	6.44 µM (inactive)	2.99 µM (inactive)	24.2 µM (inactive)	20.4 µM (inactive)	9.77 µM (inactive)	20.3 µM (inactive)	28 µM (inactive)	3.64 µM (inactive)	20 µM (inactive)	6.82 µM (inactive)	21.8 µM (inactive)	17.3 µM (inactive)	29.6 µM (inactive)	10.1 µM (inactive)	5.46 µM (inactive)	9.06 µM (inactive)	5.06 µM (inactive)	41.3 µM (inactive)	23.2 µM (inactive)	2 µM (inactive)
COc1cc(/C=C2\C(=O)N(c3ccc(Cl)cc3)C(c3ccccc3)S2(=O)=O)cc(OC)c1OC (stereo not given)	3.48 µM (inactive)	9.77 µM (inactive)	14.3 µM (inactive)	31 µM (inactive)	53.8 µM (inactive)	6.4 µM (inactive)	8.89 µM (inactive)	7.46 µM (inactive)	51.9 µM (inactive)	0.522 µM (active)	57 µM (inactive)	22.8 µM (inactive)	20 µM (inactive)	3.72 µM (inactive)	0.726 µM (active)	9.04 µM (inactive)	1.99 µM (inactive)	26.8 µM (inactive)	21.4 µM (inactive)	22.4 µM (inactive)
CCOC(=O)c1oc2cc3c(c4c2c1-c1ccccc1N4C)C=CC(C)(C)O3	19.5 µM (inactive)	26.6 µM (inactive)	23.6 µM (inactive)	13.5 µM (inactive)	12.6 µM (inactive)	22.2 µM (inactive)	6.58 µM (inactive)	12.8 µM (inactive)	3.72 µM (inactive)	40.2 µM (inactive)	6.4 µM (inactive)	12.3 µM (inactive)	14.7 µM (inactive)	16.3 µM (inactive)	6.71 µM (inactive)	29.9 µM (inactive)	> 65.3 µM (inactive)	15.3 µM (inactive)	31.2 µM (inactive)	7.31 µM (inactive)
[N-]=[N+]=NC1C(O)C(CO)OC1n1ccc(=O)[nH]c1=O (stereo not given)	> 875 µM (inactive)	> 875 µM (inactive)	> 875 µM (inactive)	> 875 µM (inactive)	> 875 µM (inactive)	> 875 µM (inactive)	> 875 µM (inactive)	> 875 µM (inactive)	> 875 µM (inactive)	> 875 µM (inactive)	> 875 µM (inactive)	> 875 µM (inactive)	> 875 µM (inactive)	> 875 µM (inactive)	> 875 µM (inactive)	> 875 µM (inactive)	> 875 µM (inactive)	344 µM (inactive)	> 875 µM (inactive)	0.0875 µM (active)
COc1ccc2c(c1)C(N)=C(c1ccccc1OC)C2=O	89.7 µM (inactive)	> 100 µM (inactive)	> 100 µM (inactive)	> 100 µM (inactive)	64.3 µM (inactive)	> 100 µM (inactive)	99.5 µM (inactive)	> 100 µM (inactive)	> 100 µM (inactive)	> 100 µM (inactive)	> 100 µM (inactive)	85.7 µM (inactive)	> 100 µM (inactive)	76.6 µM (inactive)	> 100 µM (inactive)	> 100 µM (inactive)	> 100 µM (inactive)	> 100 µM (inactive)	> 100 µM (inactive)	25.1 µM (inactive)
O=c1[nH]nc(Cc2ccc(Cl)cc2)n1/N=C/c1cccs1	46.2 µM (inactive)	22.4 µM (inactive)	24.9 µM (inactive)	15.9 µM (inactive)	19.1 µM (inactive)	24.9 µM (inactive)	> 100 µM (inactive)	> 100 µM (inactive)	24.6 µM (inactive)	> 100 µM (inactive)	41.3 µM (inactive)	> 100 µM (inactive)	20.4 µM (inactive)	> 100 µM (inactive)	> 100 µM (inactive)	73.3 µM (inactive)	> 100 µM (inactive)	23 µM (inactive)	> 100 µM (inactive)	15.5 µM (inactive)
COC(=O)[C@@]12C(=O)C=CC(=O)[C@@H]1C1C(=CC2COC(C)=O)O[C@@H]2OC3(CCCCC3)O[C@H]12 (stereo not given in full)	14.9 µM (inactive)	20.2 µM (inactive)	13.2 µM (inactive)	14.2 µM (inactive)	13 µM (inactive)	17.1 µM (inactive)	5.24 µM (inactive)	2.99 µM (inactive)	8.49 µM (inactive)	15.6 µM (inactive)	10.4 µM (inactive)	12.6 µM (inactive)	16.1 µM (inactive)	13 µM (inactive)	4.15 µM (inactive)	16.7 µM (inactive)	5.77 µM (inactive)	15.4 µM (inactive)	16.3 µM (inactive)	11.1 µM (inactive)
N#C/C(=C\c1cc(Br)c(O)c(Br)c1)c1ccccn1	35.9 µM (inactive)	47.9 µM (inactive)	30.2 µM (inactive)	93.8 µM (inactive)	> 100 µM (inactive)	44 µM (inactive)	61 µM (inactive)	73.5 µM (inactive)	14.5 µM (inactive)	72.8 µM (inactive)	84.7 µM (inactive)	29.1 µM (inactive)	46.1 µM (inactive)	39.1 µM (inactive)	34.6 µM (inactive)	51.4 µM (inactive)	52.4 µM (inactive)	26.7 µM (inactive)	35.4 µM (inactive)	91.4 µM (inactive)
Nc1ccc(S(=O)(=O)Nc2nccs2)cc1 [SULFATHIAZOLE]	> 100 µM (inactive)	> 100 µM (inactive)	> 100 µM (inactive)	> 100 µM (inactive)	17 µM (inactive)	> 100 µM (inactive)	> 100 µM (inactive)	> 100 µM (inactive)	0.0101 µM (active)	> 100 µM (inactive)	> 100 µM (inactive)	> 100 µM (inactive)	> 100 µM (inactive)	> 100 µM (inactive)	> 100 µM (inactive)	> 100 µM (inactive)	> 100 µM (inactive)	> 100 µM (inactive)	> 100 µM (inactive)	> 100 µM (inactive)

From ChEMBL document CHEMBL1201862, “PubChem BioAssay data set” (2004)
